The values below come from US6946137B2, “Methods for the controlled delivery of pharmacologically active compounds” (IDEXX Laboratories, Inc., priority 2001, dated 2005).

The conditions of series [1]: stated as background, no test described, cited from earlier work.
Series [2] in a line: in vitro release from dialysis bag into saline. It counts as physicochemical.
The subject of series [3] is cats. The settings on record: previous data; cited from earlier work.

Counter-ions that a name gives are not always drawn. Like-named read-outs stand apart in the source and are kept apart here.

Turning to `CN(C)C1C(O)=C(C(N)=O)C(=O)[C@@]2(O)C(O)=C3C(=O)c4c(O)cccc4[C@@](C)(O)C3C(O)C12` (some centres unmarked) [hydrochloride salt of oxytetracycline, Oxytetracycline], the “solubility in water / aqueous solutions (in words), known forms” value (from here on “solubility in water / aqueous solutions”) in series [1] is on record as “readily soluble in water”.

Consider `CNCCC(Oc1ccc(C(F)(F)F)cc1)c1ccccc1` (centres unmarked) [fluoxetine base formulation, Fluoxetine], for which the “time over which the formulation was released in vitro” value in series [2] (100 mg/ml in 10% propylene glycol in glycerol formal, dialysis technique) is given as “about 160 hrs”.

Take `COCCc1ccc(OCC(O)CNC(C)C)cc1` (centres unmarked) [metoprolol base, Metoprolol]: the “in vitro release rate (in words)” value in series [2] (dialysis bag into saline) is reported as “diffused off rapidly”.

Consider `CC[C@H]1OC(=O)C[C@@H](O)[C@H](C)[C@@H](OC2OC(C)C(O)C(N(C)C)C2O)[C@@H](CCN2C[C@@H](C)C[C@H](C)C2)C[C@@H](C)C(=O)/C=C/C(C)=C/[C@@H]1COC1OC(C)C(O)C(OC)C1OC` (some centres unmarked) [tilmicosin chloride salt, Tilmicosin], for which the “solubility in water / aqueous solutions” value in series [1] was “highly soluble”.

On to `CC[C@H]1OC(=O)C[C@@H](O)[C@H](C)[C@@H](OC2OC(C)C(O)C(N(C)C)C2O)[C@@H](CCN2C[C@@H](C)C[C@H](C)C2)C[C@@H](C)C(=O)/C=C/C(C)=C/[C@@H]1COC1OC(C)C(O)C(OC)C1OC` (some centres unmarked) [phosphate salt of tilmicosin, Tilmicosin], for which, in series [1] (listed as tilmicosin phosphate salt), the “solubility in water / aqueous solutions” value is recorded as “highly soluble”. Moreover, the “dosage that could be fatal to cats” value in series [3] is recorded as 25 mg/kg.

In the case of `COCCc1ccc(OCC(O)CNC(C)C)cc1` (centres unmarked) [metoprolol succinate, Metoprolol], in series [1], the “solubility in water / aqueous solutions” value is reported as “highly soluble in water”.

For the compound `CC[C@H]1OC(=O)C[C@@H](O)[C@H](C)[C@@H](OC2OC(C)C(O)C(N(C)C)C2O)[C@@H](CCN2C[C@@H](C)C[C@H](C)C2)C[C@@H](C)C(=O)/C=C/C(C)=C/[C@@H]1COC1OC(C)C(O)C(OC)C1OC` (some centres unmarked) [tilmicosin basic form, Tilmicosin], in series [1], the “solubility in water / aqueous solutions” value is listed as “moderately soluble”.
